These compounds were tested against T1, Xanthine oxidase (Rattus norvegicus, UniProt P22985) (assay: xanthine oxidase inhibiting activity (xanthine oxidase-catalyzed oxidation of xanthine to uric acid)). Conditions: xanthine oxidase from rat liver; 10^-5 molar xanthine, 0.1M tris hydrochloride pH 8.1, 30° C., uric acid formation at 293 nm.
T1 construct: Xanthine oxidase was obtained from rat liver; from tissue; host or cells: rat liver
Type: biochemical
Experimental: Xanthine oxidase was obtained from rat liver according to the method described by E. Della Corte and F. Stirpe in Biochem.J. 117, 97 (1970) and was aged for at least 24 hours prior to use. Solutions of 3 ml of 0.1M aqueous tris hydrochloride buffer (pH 8.1) containing 10^-5 molar xanthine were treated with 200 μl of xanthine oxidase dissolved in 0.1M aqueous tris hydrochloride buffer (pH 8.1) and incubated at 30° C. in the presence and absence of a test substance, whereupon the formation of uric acid from xanthine was monitored by measuring the light absorption at 293 nm. The IC50 , namely that concentration of a test substance required to inhibit by 50% the xanthine oxidase-catalyzed oxidation of xanthine to uric acid, was then determined.

T1 sequence (P22985 whole entry): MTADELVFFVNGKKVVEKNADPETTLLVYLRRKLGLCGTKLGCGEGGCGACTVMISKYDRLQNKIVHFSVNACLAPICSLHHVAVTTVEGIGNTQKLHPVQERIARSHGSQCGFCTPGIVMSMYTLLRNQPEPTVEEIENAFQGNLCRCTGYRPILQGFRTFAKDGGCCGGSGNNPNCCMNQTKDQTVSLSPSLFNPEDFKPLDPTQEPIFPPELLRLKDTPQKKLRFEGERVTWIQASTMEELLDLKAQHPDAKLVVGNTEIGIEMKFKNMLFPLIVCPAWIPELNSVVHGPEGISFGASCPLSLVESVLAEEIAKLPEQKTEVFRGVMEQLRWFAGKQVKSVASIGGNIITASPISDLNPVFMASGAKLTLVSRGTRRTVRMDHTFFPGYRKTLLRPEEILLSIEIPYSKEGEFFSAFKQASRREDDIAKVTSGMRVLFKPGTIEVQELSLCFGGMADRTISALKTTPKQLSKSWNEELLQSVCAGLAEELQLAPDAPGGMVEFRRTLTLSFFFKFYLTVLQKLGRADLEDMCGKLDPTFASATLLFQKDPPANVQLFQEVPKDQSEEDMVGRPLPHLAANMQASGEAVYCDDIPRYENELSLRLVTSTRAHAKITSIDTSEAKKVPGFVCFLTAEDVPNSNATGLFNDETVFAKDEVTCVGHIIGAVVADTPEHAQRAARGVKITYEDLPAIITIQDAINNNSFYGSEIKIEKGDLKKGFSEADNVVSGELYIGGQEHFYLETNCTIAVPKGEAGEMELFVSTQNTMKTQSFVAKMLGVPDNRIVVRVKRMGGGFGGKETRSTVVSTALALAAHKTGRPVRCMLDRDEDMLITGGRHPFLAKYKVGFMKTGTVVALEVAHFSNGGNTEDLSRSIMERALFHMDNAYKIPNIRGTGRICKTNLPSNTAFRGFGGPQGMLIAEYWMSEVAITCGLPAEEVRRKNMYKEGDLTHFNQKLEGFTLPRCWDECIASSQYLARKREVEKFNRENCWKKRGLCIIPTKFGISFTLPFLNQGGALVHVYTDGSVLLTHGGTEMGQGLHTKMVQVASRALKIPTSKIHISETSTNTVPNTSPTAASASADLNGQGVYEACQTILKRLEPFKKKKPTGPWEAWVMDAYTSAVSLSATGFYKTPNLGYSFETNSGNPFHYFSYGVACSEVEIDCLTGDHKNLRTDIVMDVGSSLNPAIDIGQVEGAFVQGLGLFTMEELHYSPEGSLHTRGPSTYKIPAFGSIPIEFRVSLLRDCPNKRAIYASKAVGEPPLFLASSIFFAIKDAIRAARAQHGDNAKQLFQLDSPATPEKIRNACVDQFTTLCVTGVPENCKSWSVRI

Q: How did the IC50 turn out when `O=c1[nH]nnc2c1cnn2-c1cccc(C(F)(F)F)c1` [7-(3-Trifluoromethylphenyl)-7H-pyrazolo[3,4-d]-1,2,3-triazin-4(3H)-one] was run?
A: 35 nM

Q: For `COc1ccc(-n2ncc3c(=O)[nH]nnc32)cc1Cl` [7-(3-chloro-4-methoxyphenyl)-7H-pyrazolo[3,4-d]-1,2,3-triazin-4(3H)-one], which IC50 is on record?
A: 6 nM

Q: With `COc1ccc(-c2nsc3c(=O)[nH]nnc23)cc1Cl` [7-(3-chloro-4-methoxyphenyl)isothiazolo[4,5-d]-1,2,3-triazin-4(3H)-one] as the compound, how does the IC50 read?
A: 4 nM

Q: `COc1ccc(-c2nsc3c(=O)[nH]nnc23)cc1F` [7-(3-fluoro-4-methoxyphenyl)isothiazolo[4,5-d]-1,2,3-triazin-4(3H)-one] was tested. Which IC50 did it give?
A: 8 nM

Q: `COc1ccc(-c2nsc3c(=O)[nH]nnc23)cc1C(F)(F)F` [7-(3-trifluoromethyl-4-methoxyphenyl)isothiazolo[4,5-d]-1,2,3-triazin-4(3H)-one] was tested. Which IC50 did it give?
A: 4 nM

Q: How did the IC50 turn out when `CC(=O)Nc1ccc(-c2nsc3c(=O)[nH]nnc23)cc1` [7-(4-acetamidophenyl)isothiazolo[4,5-d]-1,2,3-triazin-4(3H)-one] was run?
A: 7 nM

Q: Which IC50 does the source give for `CSc1ccc(-n2ncc3c(=O)[nH]nnc32)cc1` [7-(4-methylthiophenyl)-7H-pyrazolo[3,4-d]-1,2,3-triazin-4(3H)-one] here?
A: 18 nM

Q: With `O=c1[nH]nnc2c(-c3cccc(C(F)(F)F)c3)nccc12` [8-(3-trifluoromethylphenyl)pyrido[3,4-d]-1,2,3-triazin-4(3H)-one] as the compound, how does the IC50 read?
A: 48 nM

Reference: patent publication US4920119A, “Triazine derivatives” (Hoffmann-La Roche Inc., priority 1986, dated 1990)
